Data from patent publication US20110152089A1, “HERBICIDAL COMPOSITIONS COMPRISING FLUFENACET” (Bayer CropScience AG, priority 2009, published 2011).

What was measured:
HORVS [1] = assay: PE soil application vs incorporation into the soil, crop selectivity, greenhouse (Table 1); assay type: in vivo, Hordeum vulgare, summer barley; details: g of AS/ha: (A) 90, (B) 300, (C) 70, (A)+(B)+(C) 90 + 300 + 70, visual, about 3 weeks after application
Experimental: (§1) In the standard design of the test, seeds of various broad-leaved weed and weed grass biotypes (origins) were sown in a 8-13 cm diameter pot filled with natural soil of a standard field soil (loamy silt; non-sterile) and covered with a covering soil layer of about 1 cm. The pots were then cultivated in a greenhouse (12-16 h of light, temperature day 20-22° C., night 15-18° C.) until the time of application. The pots were treated on a laboratory track sprayer with spray liquors comprising the compositions according to the invention, mixtures of the prior art or components used individually. Application of the active compounds or active compound combinations formulated as WG, WP, EC or otherwise was carried out at the appropriate growth stages of the plants. The application rate for the spray application was 100-600 l of water/ha. After the treatment, the plants were returned to the greenhouses.
(§2) About 3 weeks after the application, the soil action or/and foliar action was assessed visually according to a scale of 0-100% in comparison to an untreated comparative group: 0%=no noticeable effect compared to the untreated comparative group; 100%=full effect compared to the untreated comparative group.
(§3) (notes: the term “seeds” also includes vegetative propagation forms such as, for example, rhizome pieces; abbreviations used: h light=hours of illumination, g of AS/ha=gram of active substance per hectare, l/ha=liter per hectare, S=sensitive, R=resistant) • 1. Pre-emergence action against weeds: seeds of various broad-leaved weed and weed grass biotypes (origins) were sown in a 8-13 cm diameter pot filled with natural soil of a standard field soil (loamy silt; non-sterile) and covered with a covering soil layer of about 1 cm. The pots were then cultivated in a greenhouse (12-16 h of light, temperature day 20-22° C., night 15-18° C.) until the time of application. The pots were treated at the BBCH stage 00-10 of the seeds/plants on a laboratory track sprayer with spray liquors comprising the compositions according to the invention, mixtures or components used individually, as WG, WP, EC or other formulations. The application rate for the spray application was 100-600 l of water/ha. After the treatment, the plants were returned to the greenhouses and, when required, treated with fertilizer and watered. • 2. Post-emergence action against weeds: seeds of various broad-leaved weed and weed grass biotypes (origins) were sown in a 8-13 cm diameter pot filled with natural soil of a standard field soil (loamy silt; non-sterile) and covered with a covering soil layer of about 1 cm. The pots were then cultivated in a greenhouse (12-16 h of light, temperature day 20-22° C., night 15-18° C.) until the time of application. The pots were treated at various BBCH stages between 11-25 of the seeds/plants, i.e. generally between two to three weeks after the start of the cultivation, on a laboratory track sprayer with spray liquors comprising the compositions according to the invention, mixtures or components used individually, as WG, WP, EC or other formulations. The application rate for the spray application was 100-600 l of water/ha. After the treatment, the plants were returned to the greenhouses and, when required, treated with fertilizer and watered. • 3. Pre-emergence action against weeds with and without incorporation of active compound: seeds of various broad-leaved weed and weed grass biotypes (origins) were sown in a 8-13 cm diameter pot filled with natural soil of a standard field soil (loamy silt; non-sterile). […]

HORVS [2] = assay: PO application, crop selectivity, greenhouse (Table 2); assay type: in vivo, Hordeum vulgare, summer barley; details: g of AS/ha: (A) 120, (B) 1200, (C) 140, (A)+(B)+(C) 120 + 1200 + 140, visual, about 3 weeks after application
Experimental: as §1, §2
(notes: the term “seeds” also includes vegetative propagation forms such as, for example, rhizome pieces; abbreviations used: h light=hours of illumination, g of AS/ha=gram of active substance per hectare, l/ha=liter per hectare, S=sensitive, R=resistant) • 1. Pre-emergence action against weeds: seeds of various broad-leaved weed and weed grass biotypes (origins) were sown in a 8-13 cm diameter pot filled with natural soil of a standard field soil (loamy silt; non-sterile) and covered with a covering soil layer of about 1 cm. The pots were then cultivated in a greenhouse (12-16 h of light, temperature day 20-22° C., night 15-18° C.) until the time of application. […]

AVEFA = assay: PE application vs pre-sowing application, greenhouse (Table 3); assay type: in vivo, Avena fatua; details: g of AS/ha: (A) 90, (B) 300, (C) 140, (A)+(B)+(C) 90 + 300 + 140
Experimental: as §1, §2
(notes: the term “seeds” also includes vegetative propagation forms such as, for example, rhizome pieces; abbreviations used: h light=hours of illumination, g of AS/ha=gram of active substance per hectare, l/ha=liter per hectare, S=sensitive, R=resistant) • 1. Pre-emergence action against weeds: seeds of various broad-leaved weed and weed grass biotypes (origins) were sown in a 8-13 cm diameter pot filled with natural soil of a standard field soil (loamy silt; non-sterile) and covered with a covering soil layer of about 1 cm. The pots were then cultivated in a greenhouse (12-16 h of light, temperature day 20-22° C., night 15-18° C.) until the time of application. The pots were treated at the BBCH stage 00-10 of the seeds/plants on a laboratory track sprayer with spray liquors comprising the compositions according to the invention, mixtures or components used individually, as WG, WP, EC or other formulations. The application rate for the spray application was 100-600 l of water/ha. After the treatment, the plants were returned to the greenhouses and, when required, treated with fertilizer and watered. • 2. Post-emergence action against weeds: seeds of various broad-leaved weed and weed grass biotypes (origins) were sown in a 8-13 cm diameter pot filled with natural soil of a standard field soil (loamy silt; non-sterile) and covered with a covering soil layer of about 1 cm. The pots were then cultivated in a greenhouse (12-16 h of light, temperature day 20-22° C., night 15-18° C.) until the time of application. […]

STEME [3] = assay: Activity with different soil types, greenhouse (Table 5); assay type: in vivo, Stellaria media; details: g of AS/ha: (A) 90, (B) 300, (C) 140, (A)+(B)+(C) 90 + 300 + 140; for activity STEME IU soil: IU soil (loamy silt standard field soil); for activity STEME IU/EC73 soil: IU/EC73 soil (heavy soil, higher organic substance)
Experimental: as §1, §2, §3

HORVS [4] = assay: Activity with different soil types, crop selectivity, greenhouse (Table 5); assay type: in vivo, Hordeum vulgare, summer barley; details: g of AS/ha: (A) 90, (B) 300, (C) 140, (A)+(B)+(C) 90 + 300 + 140; for activity HORVS IU soil (crop plant): IU soil (loamy silt standard field soil); for activity HORVS IU/EC73 soil (crop plant): IU/EC73 soil (heavy soil, higher organic substance)
Experimental: as §1, §2, §3

STEME [5] = assay: Resistant biotypes, PE application, greenhouse (Table 6); assay type: in vivo, Stellaria media; details: g of AS/ha: (A) 90, (B) 300, (C) 140, (A)+(B)+(C) 120 + 600 + 140, iodosulfuron 10; for activity STEME resistant: resistant biotype; for activity STEME sensitive: sensitive biotype
Experimental: as §1, §2, §3

[6] = application 7 days prior to sowing

Row | SMILES | activity HORVS (crop plant) (HORVS [1]; PE application) [%] | activity HORVS (crop plant) (HORVS [1]; incorporation into the soil) [%] | activity HORVS (crop plant) (HORVS [2]) [%] | activity AVEFA (AVEFA; PE application) [%] | activity AVEFA (AVEFA; [6]) [%] | activity STEME IU soil (STEME [3]) [%] | activity STEME IU/EC73 soil (STEME [3]) [%] | activity HORVS IU soil (crop plant) (HORVS [4]) [%] | activity HORVS IU/EC73 soil (crop plant) (HORVS [4]) [%] | activity STEME resistant (STEME [5]) [%] | activity STEME sensitive (STEME [5]) [%]
1 | CCCN(CCC)c1c([N+](=O)[O-])cc(C(F)(F)F)cc1[N+](=O)[O-] [(B) trifluralin, 2,6-dinitro-N,N-dipropyl-4-(trifluoromethyl)benzenamine] | 0 | 35 | 20 | 0 | 60 | 50 | 5 | 0 | 0 | 20 | 20
2 | CSc1nnc(C(C)(C)C)c(=O)n1N [(C) metribuzin, 4-amino-6-(1,1-dimethyl-ethyl)-3-(methylthio)-1,2,4-triazin-5-(4H)-one] | 30 | 70 | 70 | 70 | 0 | 75 | 5 | 0 | 0 | 98 | 100
